According to publication PMC6225228, “Design, Synthesis and Evaluation of N-pyrazinylbenzamides as Potential Antimycobacterial Agents” (Molecules : A Journal of Synthetic Chemistry and Natural …, 2018):
Values after ≈ are worked out from the molar mass of the structure shown. Read-outs that look alike come from different tables or passages of the source.

Legend:
Candida glabrata 20/I = test: Antifungal microdilution broth, CG; format: cell-based; conditions: read-out: MIC CG
[1] = system: Enterococcus sp. J 14365/08; test: Antibacterial microdilution broth, EF; format: cell-based; conditions: Enterococcus, read-out: MIC EF
[2] = system: Aspergillus fumigatus 231; test: Antifungal microdilution broth, AF; format: cell-based; conditions: read-out: MIC AF
[3] = human, HepG2 cells
[4] = system: Staphylococcus aureus H 5996/08 methicillin resistant; test: microbe, parasite or virus in culture; format: cell-based; conditions: for MIC: Staphylococcus aureus, MRSA, read-out: MIC MRSA
Candida krusei E28 = test: Antifungal microdilution broth, CK; format: cell-based; conditions: read-out: MIC CK
[5] = system: Escherichia coli CCM 4517; test: Antibacterial microdilution broth, EC; format: cell-based; conditions: Escherichia coli, read-out: MIC EC
Candida tropicalis 156 = test: Antifungal microdilution broth, CT; format: cell-based; conditions: read-out: MIC CT
[6] = system: Lichtheimia corymbifera 272; test: Antifungal microdilution broth, LC; format: cell-based; conditions: read-out: MIC LC
[7] = system: Candida albicans ATCC 44859; test: Antifungal microdilution broth, CA; format: cell-based; conditions: read-out: MIC CA
[8] = system: Staphylococcus aureus CCM 4516/08; test: Antibacterial microdilution broth, SA; format: cell-based
[9] = system: Staphylococcus epidermidis H 6966/08; test: Antibacterial microdilution broth, SE; format: cell-based; conditions: read-out: MIC SE
[10] = system: M. kansasii CNCTC My 235/80 (ATCC 12478); test: Antimycobacterial microdilution MABA, M. kansasii; format: cell-based, Mycobacterium kansasii; conditions: for M. kans. ATCC 12478 MIC: Middlebrook 7H9 with OADC, pH 6.6, MABA; for MIC: Mycobacterium kansasii, ATCC12478, pH 6.6, read-out: M. kans. ATCC 12478 MIC, Middlebrook 7H9 with OADC, pH 6.6, MABA
[11] = system: Mycobacterium smegmatis CCM 4622 (ATCC 607); test: Antimycobacterial microdilution, M. smegmatis; format: cell-based; conditions: Mycolicibacterium smegmatis, read-out: M. smeg. ATCC 607 MIC
[12] = system: Mycobacterium tuberculosis H37Rv CNCTC My 331/88 (ATCC 27294); test: Antimycobacterial microdilution MABA, M. tuberculosis; format: cell-based; conditions: for Mtb H37Rv ATCC 27294 MIC: Middlebrook 7H9 with OADC growth supplement, pH = 6.6, MABA; for MIC: Mycobacterium tuberculosis
[13] = system: Trichophyton interdigitale 445; test: Antifungal microdilution broth, TI; format: cell-based; conditions: read-out: MIC TI
Trichosporon asahii 1188 = test: Antifungal microdilution broth, TA; format: cell-based; conditions: read-out: MIC TA
[14] = system: Pseudomonas aeruginosa CCM 1961; test: Antibacterial microdilution broth, PA; format: cell-based; conditions: Pseudomonas aeruginosa, read-out: MIC PA
[15] = system: M. avium ssp. avium CNCTC My 80/72 (ATCC 15769); test: Antimycobacterial microdilution MABA, M. avium; format: cell-based, Mycobacterium avium; conditions: for M. avium ATCC 15769 MIC: Middlebrook 7H9 with OADC, pH 6.6, MABA; for MIC: Mycobacterium avium, ATCC15769, pH 6.6, read-out: M. avium ATCC 15769 MIC
[16] = system: eight fungal strains of clinical importance; test: Antifungal microdilution, all tested fungal strains; format: cell-based
[17] = Nakaseomyces glabratus, 20/I, 24 h
[18] = Nakaseomyces glabratus, 20/I, 48 h
[19] = Aspergillus fumigatus, 231, 24 h
[20] = Aspergillus fumigatus, 231, 48 h
[21] = Lichtheimia corymbifera, 272, 24 h
[22] = Lichtheimia corymbifera, 272, 48 h
[23] = Candida albicans, ATCC44859, 24 h
[24] = Candida albicans, ATCC44859, 48 h
[25] = Staphylococcus aureus, CCM4516, 24 h, read-out: MIC SA, 24 h
[26] = Staphylococcus aureus, CCM4516, 48 h, read-out: MIC SA, 48 h
[27] = Staphylococcus epidermidis, H6966/08, 24 h
[28] = Staphylococcus epidermidis, H6966/08, 48 h
[29] = read-out: Mtb H37Rv ATCC 27294 MIC, Middlebrook 7H9 with OADC growth supplement, pH = 6.6, MABA
[30] = Trichophyton interdigitale, 445, 72 h
[31] = Trichophyton interdigitale, 445, 120 h
[32] = Trichosporon asahii, 1188, 24 h
[33] = Trichosporon asahii, 1188, 48 h

## CC(=O)Oc1ccc(C(=O)Nc2cnc(Cl)cn2)cc1 [Compound 2d-Ac]
Candida glabrata 20/I; [17]
  MIC: > 125 µM
Candida glabrata 20/I; [18]
  MIC: > 125 µM
[1]; SP.J14365/08, 24 h
  MIC: > 125 µM
[1]; SP.J14365/08, 48 h
  MIC: > 125 µM
[2]; [19]
  MIC: > 125 µM
[2]; [20]
  MIC: > 125 µM
other
  melting point: 170.9 to 171.8 °C
[3]
  IC50 at 24 h: > 500 µM
[4]; 24 h
  MIC MRSA: >125 µM
  MIC: > 125 µM
[4]; 48 h
  MIC MRSA: >125 µM
  MIC: > 125 µM
Candida krusei E28; Pichia kudriavzevii, E28, 24 h
  MIC: > 125 µM
Candida krusei E28; Pichia kudriavzevii, E28, 48 h
  MIC: > 125 µM
[5]; CCM4517, 24 h
  MIC: > 125 µM
[5]; CCM4517, 48 h
  MIC: > 125 µM
Candida tropicalis 156; Candida tropicalis, 156, 24 h
  MIC: > 125 µM
Candida tropicalis 156; Candida tropicalis, 156, 48 h
  MIC: > 125 µM
[6]; [21]
  MIC: > 125 µM
[6]; [22]
  MIC: > 125 µM
[7]; [23]
  MIC: > 125 µM
[7]; [24]
  MIC: > 125 µM
[8]; [25]
  MIC: 0.98 µM (≈ 0.286 µg/mL)
[8]; [26]
  MIC: 0.98 µM (≈ 0.286 µg/mL)
[9]; 24 h
  MIC: >125 µM
[9]; 48 h
  MIC: >125 µM
[9]; [27]
  MIC: > 125 µM
[9]; [28]
  MIC: > 125 µM
[10]
  M. kans. ATCC 12478 MIC: >100 µg/mL
  MIC: > 100 µg/mL
[11]
  MIC: 250 µg/mL (≈ 857 µM)
[12]
  Mtb H37Rv ATCC 27294 MIC: >100 µg/mL
[12]; [29]
  MIC: > 100 µg/mL
[12]; molar concentration
  Mtb MIC: inactive
[13]; [30]
  MIC: > 125 µM
[13]; [31]
  MIC: > 125 µM
Trichosporon asahii 1188; [32]
  MIC: > 125 µM
Trichosporon asahii 1188; [33]
  MIC: > 125 µM
[14]; CCM1961, 72 h
  MIC: > 125 µM
[14]; CCM1961, 120 h
  MIC: > 125 µM
[15]
  M. avium ATCC 15769 MIC: >100 µg/mL
  MIC: > 100 µg/mL

## Cc1ccc(C(=O)Nc2cnc(Cl)cn2)cc1 [Compound 2h]
Candida glabrata 20/I; [17]
  MIC: > 125 µM
Candida glabrata 20/I; [18]
  MIC: > 125 µM
[1]; SP.J14365/08, 24 h
  MIC: > 125 µM
[1]; SP.J14365/08, 48 h
  MIC: > 125 µM
[2]; [19]
  MIC: > 125 µM
[2]; [20]
  MIC: > 125 µM
other
  melting point: 186.4 to 187.1 °C
[3]
  IC50 at 24 h: > 250 µM
[4]; 24 h
  MIC: > 125 µM
[4]; 48 h
  MIC: > 125 µM
Candida krusei E28; Pichia kudriavzevii, E28, 24 h
  MIC: > 125 µM
Candida krusei E28; Pichia kudriavzevii, E28, 48 h
  MIC: > 125 µM
[5]; CCM4517, 24 h
  MIC: > 125 µM
[5]; CCM4517, 48 h
  MIC: > 125 µM
Candida tropicalis 156; Candida tropicalis, 156, 24 h
  MIC: > 125 µM
Candida tropicalis 156; Candida tropicalis, 156, 48 h
  MIC: > 125 µM
[6]; [21]
  MIC: > 125 µM
[6]; [22]
  MIC: > 125 µM
[7]; [23]
  MIC: > 125 µM
[7]; [24]
  MIC: > 125 µM
[8]; 24 h, read-out: MIC SA
  MIC: >125 µM
[8]; [25]
  MIC: > 125 µM
[8]; [26]
  MIC: > 125 µM
[9]; [27]
  MIC: > 125 µM
[9]; [28]
  MIC: > 125 µM
[10]
  M. kans. ATCC 12478 MIC: >100 µg/mL
  MIC: > 100 µg/mL
[11]
  MIC: ≥ 500 µg/mL
[12]
  Mtb H37Rv ATCC 27294 MIC: 6.25 µg/mL
[12]; [29]
  MIC: 3.13 to 6.25 µg/mL
[12]; read-out: Mtb MIC, molar concentration
  MIC: 25.2 µM
[13]; [30]
  MIC: > 125 µM
[13]; [31]
  MIC: > 125 µM
Trichosporon asahii 1188; [32]
  MIC: > 125 µM
Trichosporon asahii 1188; [33]
  MIC: > 125 µM
[14]; CCM1961, 72 h
  MIC: > 125 µM
[14]; CCM1961, 120 h
  MIC: > 125 µM
[15]
  M. avium ATCC 15769 MIC: >100 µg/mL
  MIC: > 100 µg/mL

## C[C@@H]1[C@H](O)[C@@H](C)/C=C/C=C/CC/C=C/C=C/C=C/C=C/C(O[C@H]2O[C@H](C)[C@@H](O)[C@H](N)[C@@H]2O)CC2O[C@](O)(CC(O)C(O)CCC(O)CC(O)CC(O)CC(=O)O[C@H]1C)CC(O)C2C(=O)O (some centres unmarked) [NYS, nystatin, reference compound]
Candida glabrata 20/I; 24 h
  MIC: 1.95 µM (≈ 1.81 µg/mL)
Candida glabrata 20/I; 48 h
  MIC: 3.9 µM (≈ 3.61 µg/mL)
[2]; 24 h
  MIC: 1.95 µM (≈ 1.81 µg/mL)
[2]; 48 h
  MIC: 3.9 µM (≈ 3.61 µg/mL)
Candida krusei E28; 24 h
  MIC: 1.95 µM (≈ 1.81 µg/mL)
Candida krusei E28; 48 h
  MIC: 3.9 µM (≈ 3.61 µg/mL)
Candida tropicalis 156; 24 h
  MIC: 1.95 µM (≈ 1.81 µg/mL)
Candida tropicalis 156; 48 h
  MIC: 3.9 µM (≈ 3.61 µg/mL)
[6]; 24 h
  MIC: 15.62 µM (≈ 14.5 µg/mL)
[6]; 48 h
  MIC: 31.25 µM (≈ 28.9 µg/mL)
[7]; 24 h
  MIC: 0.98 µM (≈ 0.908 µg/mL)
[7]; 48 h
  MIC: 1.95 µM (≈ 1.81 µg/mL)
[13]; 72 h
  MIC: 3.9 µM (≈ 3.61 µg/mL)
[13]; 120 h
  MIC: 7.81 µM (≈ 7.23 µg/mL)
Trichosporon asahii 1188; 24 h
  MIC: 1.95 µM (≈ 1.81 µg/mL)
Trichosporon asahii 1188; 48 h
  MIC: 1.95 µM (≈ 1.81 µg/mL)
[16]; read after 24 h (Trichophyton interdigitale 72 h)
  MIC, all tested fungal strains: 0.98 to 15.62 µM

## O=C(Nc1cnc(Cl)cn1)c1cccc(O)c1 [Compound 2c]
Candida glabrata 20/I; [17]
  MIC: > 500 µM
Candida glabrata 20/I; [18]
  MIC: > 500 µM
[1]; SP.J14365/08, 24 h
  MIC: > 500 µM
[1]; SP.J14365/08, 48 h
  MIC: > 500 µM
[2]; [19]
  MIC: > 500 µM
[2]; [20]
  MIC: > 500 µM
other
  melting point: 190.1 to 190.8 °C
[4]; 24 h
  MIC MRSA: >500 µM
  MIC: > 500 µM
[4]; 48 h
  MIC MRSA: >500 µM
  MIC: > 500 µM
Candida krusei E28; Pichia kudriavzevii, E28, 24 h
  MIC: > 500 µM
Candida krusei E28; Pichia kudriavzevii, E28, 48 h
  MIC: > 500 µM
[5]; CCM4517, 24 h
  MIC: > 500 µM
[5]; CCM4517, 48 h
  MIC: > 500 µM
Candida tropicalis 156; Candida tropicalis, 156, 24 h
  MIC: > 500 µM
Candida tropicalis 156; Candida tropicalis, 156, 48 h
  MIC: > 500 µM
[6]; [21]
  MIC: > 500 µM
[6]; [22]
  MIC: > 500 µM
[7]; [23]
  MIC: 500 µM (≈ 125 µg/mL)
[7]; [24]
  MIC: > 500 µM
[8]; [25]
  MIC: 500 µM (≈ 125 µg/mL)
[8]; [26]
  MIC: 500 µM (≈ 125 µg/mL)
[9]; 24 h
  MIC: >500 µM
[9]; 48 h
  MIC: >500 µM
[9]; [27]
  MIC: > 500 µM
[9]; [28]
  MIC: > 500 µM
[10]
  MIC: > 100 µg/mL
[11]
  MIC: ≥ 500 µg/mL
[12]
  Mtb H37Rv ATCC 27294 MIC: >100 µg/mL
[12]; [29]
  MIC: > 100 µg/mL
[13]; [30]
  MIC: > 500 µM
[13]; [31]
  MIC: > 500 µM
Trichosporon asahii 1188; [32]
  MIC: > 500 µM
Trichosporon asahii 1188; [33]
  MIC: > 500 µM
[14]; CCM1961, 72 h
  MIC: > 500 µM
[14]; CCM1961, 120 h
  MIC: > 500 µM
[15]
  MIC: > 100 µg/mL
[16]; Trichophyton interdigitale, read-out: MIC, all tested fungal strains
  MIC: ≥ 500 µM
